Source: ChEMBL document CHEMBL5696442, “Discovery of type II inhibitors of TGFβ-activated kinase 1 (TAK1) and mitogen-activated protein kinase kinase kinase kinase 2 (MAP4K2)” (J Med Chem, 2015)
Active and inactive are the calls of the source. The rule behind the calls is not given here.

What was measured:
MEF = assay: Inhibition of IL-1alpha induced p38 phosphorylation level in mouse MEF cells preincubated for 1 hr followed by IL-1 alpha stimulation and measured after 30 mins by Western blot analysis; type: functional, cell-based; conditions: dose 0.01-10 µM
[1] = molecular target: Bone morphogenetic protein receptor type-1B (Homo sapiens) (UniProt O00238); assay: Inhibition of BMPR1B (unknown origin) at 10 uM by Ambit Kinomescan binding assay
[2] = molecular target: Mitogen-activated protein kinase 15 (Homo sapiens) (UniProt Q8TD08); assay: Inhibition of ERK8 (unknown origin) at 10 uM by Ambit Kinomescan binding assay
[3] = molecular target: Calcium/calmodulin-dependent protein kinase type II subunit delta (Homo sapiens) (UniProt Q13557); assay: Inhibition of CamK2d K1 labeling site harbouring IPTGQEYAAKIINTK in human Huh-7 cells at 10 uM by KiNativ Profiling analysis relative to control; type: cell-based
Chain of Calcium/calmodulin-dependent protein kinase type II subunit delta (Homo sapiens) (Q13557 whole entry): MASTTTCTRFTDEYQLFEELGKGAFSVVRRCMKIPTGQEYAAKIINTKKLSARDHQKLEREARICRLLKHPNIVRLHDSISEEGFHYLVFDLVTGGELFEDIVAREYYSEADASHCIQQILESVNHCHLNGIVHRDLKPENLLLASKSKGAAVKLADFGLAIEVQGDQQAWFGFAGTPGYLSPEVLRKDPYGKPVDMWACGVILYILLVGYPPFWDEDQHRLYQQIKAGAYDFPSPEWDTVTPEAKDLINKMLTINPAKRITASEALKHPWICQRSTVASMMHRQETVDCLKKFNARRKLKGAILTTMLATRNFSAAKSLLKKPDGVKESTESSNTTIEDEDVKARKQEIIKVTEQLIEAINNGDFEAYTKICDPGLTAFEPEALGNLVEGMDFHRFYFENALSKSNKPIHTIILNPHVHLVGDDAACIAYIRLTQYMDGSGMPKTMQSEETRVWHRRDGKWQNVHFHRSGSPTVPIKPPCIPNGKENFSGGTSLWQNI

[4] = molecular target: Calcium/calmodulin-dependent protein kinase type II subunit gamma (Homo sapiens) (UniProt Q13555); assay: Inhibition of CAMK2g K1 labeling site harbouring KTSTQEYAAKIINTK in human Huh-7 cells at 10 uM by KiNativ Profiling analysis relative to control; type: cell-based
[5] = molecular target: T1, Phosphatidylinositol 5-phosphate 4-kinase type-2 gamma (Homo sapiens) (UniProt Q8TBX8); assay: Inhibition of PIP5K2C C2 labeling site in human Huh-7 cells at 10 uM by KiNativ Profiling analysis relative to control; type: cell-based
T1 sequence (whole entry): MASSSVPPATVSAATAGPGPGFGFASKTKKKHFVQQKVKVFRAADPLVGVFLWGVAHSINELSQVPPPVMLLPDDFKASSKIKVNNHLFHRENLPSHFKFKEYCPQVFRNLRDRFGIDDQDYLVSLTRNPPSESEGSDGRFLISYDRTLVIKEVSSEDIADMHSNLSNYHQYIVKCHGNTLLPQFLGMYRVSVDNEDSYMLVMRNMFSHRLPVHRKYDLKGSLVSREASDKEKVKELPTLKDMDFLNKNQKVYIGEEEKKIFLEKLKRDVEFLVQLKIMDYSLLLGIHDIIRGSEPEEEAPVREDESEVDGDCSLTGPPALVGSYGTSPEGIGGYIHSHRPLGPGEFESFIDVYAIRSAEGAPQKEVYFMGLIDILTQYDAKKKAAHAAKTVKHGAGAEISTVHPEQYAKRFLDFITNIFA

[6] = molecular target: 1-phosphatidylinositol 3-phosphate 5-kinase (Homo sapiens) (UniProt Q9Y2I7); assay: Inhibition of PIP5K3 ATP labeling site in human Huh-7 cells at 10 uM by KiNativ Profiling analysis relative to control; type: cell-based
Chain of 1-phosphatidylinositol 3-phosphate 5-kinase (Homo sapiens) (Q9Y2I7 whole entry): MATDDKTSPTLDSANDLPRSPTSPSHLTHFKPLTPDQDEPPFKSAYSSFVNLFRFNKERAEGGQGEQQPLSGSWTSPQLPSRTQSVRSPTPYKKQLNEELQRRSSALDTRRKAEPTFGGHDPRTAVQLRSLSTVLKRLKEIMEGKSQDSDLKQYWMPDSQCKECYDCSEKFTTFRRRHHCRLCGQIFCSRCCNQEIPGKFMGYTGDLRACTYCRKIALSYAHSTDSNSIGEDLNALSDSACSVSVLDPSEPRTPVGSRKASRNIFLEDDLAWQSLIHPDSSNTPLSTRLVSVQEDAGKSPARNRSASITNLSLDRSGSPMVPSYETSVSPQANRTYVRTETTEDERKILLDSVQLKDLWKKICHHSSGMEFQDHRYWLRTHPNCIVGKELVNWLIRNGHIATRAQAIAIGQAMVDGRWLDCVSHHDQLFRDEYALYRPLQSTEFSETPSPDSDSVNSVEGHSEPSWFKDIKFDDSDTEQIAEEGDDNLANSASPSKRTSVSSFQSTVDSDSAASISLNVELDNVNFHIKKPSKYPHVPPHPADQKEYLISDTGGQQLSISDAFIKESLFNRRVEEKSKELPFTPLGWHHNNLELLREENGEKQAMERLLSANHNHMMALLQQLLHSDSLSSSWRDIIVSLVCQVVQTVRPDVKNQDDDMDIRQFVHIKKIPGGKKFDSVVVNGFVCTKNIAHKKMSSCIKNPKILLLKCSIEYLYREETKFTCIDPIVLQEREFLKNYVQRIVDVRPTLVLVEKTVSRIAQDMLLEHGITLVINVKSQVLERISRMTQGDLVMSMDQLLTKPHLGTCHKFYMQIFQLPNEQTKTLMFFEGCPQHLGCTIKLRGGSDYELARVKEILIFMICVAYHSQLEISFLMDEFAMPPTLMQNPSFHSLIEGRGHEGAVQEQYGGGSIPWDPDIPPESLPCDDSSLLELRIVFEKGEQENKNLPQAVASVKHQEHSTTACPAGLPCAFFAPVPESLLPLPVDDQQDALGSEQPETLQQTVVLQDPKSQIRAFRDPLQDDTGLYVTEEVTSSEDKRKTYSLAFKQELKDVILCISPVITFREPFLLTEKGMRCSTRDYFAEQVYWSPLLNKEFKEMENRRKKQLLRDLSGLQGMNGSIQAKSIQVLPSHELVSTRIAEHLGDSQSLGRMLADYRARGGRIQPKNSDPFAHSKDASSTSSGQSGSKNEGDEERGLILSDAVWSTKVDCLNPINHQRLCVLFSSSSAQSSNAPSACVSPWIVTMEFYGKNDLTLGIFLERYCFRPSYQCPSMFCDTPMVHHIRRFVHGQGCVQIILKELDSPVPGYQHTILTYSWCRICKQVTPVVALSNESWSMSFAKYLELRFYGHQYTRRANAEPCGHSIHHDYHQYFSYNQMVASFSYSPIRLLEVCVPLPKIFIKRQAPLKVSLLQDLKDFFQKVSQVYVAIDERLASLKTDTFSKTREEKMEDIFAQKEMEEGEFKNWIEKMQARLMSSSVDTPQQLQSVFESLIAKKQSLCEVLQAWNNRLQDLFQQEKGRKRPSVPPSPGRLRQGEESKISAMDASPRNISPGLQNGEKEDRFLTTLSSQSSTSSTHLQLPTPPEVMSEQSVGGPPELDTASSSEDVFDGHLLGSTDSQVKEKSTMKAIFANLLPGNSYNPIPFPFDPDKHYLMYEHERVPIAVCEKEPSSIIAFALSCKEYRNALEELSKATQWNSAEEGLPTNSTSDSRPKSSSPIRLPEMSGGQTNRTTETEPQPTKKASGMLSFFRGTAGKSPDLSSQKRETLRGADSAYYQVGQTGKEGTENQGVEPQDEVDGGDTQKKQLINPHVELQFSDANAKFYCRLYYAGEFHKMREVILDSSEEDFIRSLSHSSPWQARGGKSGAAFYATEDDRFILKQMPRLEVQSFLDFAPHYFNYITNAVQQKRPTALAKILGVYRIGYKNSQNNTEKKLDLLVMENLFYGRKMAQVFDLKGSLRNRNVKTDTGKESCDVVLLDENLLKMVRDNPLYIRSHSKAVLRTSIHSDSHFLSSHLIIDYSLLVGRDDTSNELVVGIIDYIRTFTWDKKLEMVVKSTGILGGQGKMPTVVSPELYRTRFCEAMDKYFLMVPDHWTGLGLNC

[7] = molecular target: T2, NUAK family SNF1-like kinase 1 (Homo sapiens) (UniProt O60285); assay: Inhibition of NuaK1 K2 labeling site in human Huh-7 cells at 1 uM by KiNativ Profiling analysis relative to control; type: cell-based
T2 sequence (whole entry): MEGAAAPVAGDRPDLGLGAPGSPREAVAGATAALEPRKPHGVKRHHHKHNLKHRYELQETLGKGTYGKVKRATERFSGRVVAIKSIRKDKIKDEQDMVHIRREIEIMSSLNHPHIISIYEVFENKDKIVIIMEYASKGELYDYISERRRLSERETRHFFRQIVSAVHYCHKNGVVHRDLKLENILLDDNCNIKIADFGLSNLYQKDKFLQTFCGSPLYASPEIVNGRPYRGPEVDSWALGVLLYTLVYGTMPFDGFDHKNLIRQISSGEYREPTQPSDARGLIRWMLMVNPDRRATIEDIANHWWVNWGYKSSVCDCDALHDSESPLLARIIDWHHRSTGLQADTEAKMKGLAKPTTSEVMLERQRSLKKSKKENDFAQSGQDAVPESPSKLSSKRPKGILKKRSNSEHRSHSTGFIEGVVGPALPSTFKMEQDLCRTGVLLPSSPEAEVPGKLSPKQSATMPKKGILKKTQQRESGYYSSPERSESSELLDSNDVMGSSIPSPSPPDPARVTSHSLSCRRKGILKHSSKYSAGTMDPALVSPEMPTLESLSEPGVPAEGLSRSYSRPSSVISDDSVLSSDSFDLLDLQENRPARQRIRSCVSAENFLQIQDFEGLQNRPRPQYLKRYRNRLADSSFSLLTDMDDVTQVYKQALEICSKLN

[8] = molecular target: Cyclin-dependent kinase 14 (Homo sapiens) (UniProt O94921); assay: Inhibition of PFTAIRE1 Lys1 labeling site in human A-375 cells at 0.05 uM by KiNativ Profiling analysis relative to control
Chain of Cyclin-dependent kinase 14 (Homo sapiens) (O94921 whole entry, looked up): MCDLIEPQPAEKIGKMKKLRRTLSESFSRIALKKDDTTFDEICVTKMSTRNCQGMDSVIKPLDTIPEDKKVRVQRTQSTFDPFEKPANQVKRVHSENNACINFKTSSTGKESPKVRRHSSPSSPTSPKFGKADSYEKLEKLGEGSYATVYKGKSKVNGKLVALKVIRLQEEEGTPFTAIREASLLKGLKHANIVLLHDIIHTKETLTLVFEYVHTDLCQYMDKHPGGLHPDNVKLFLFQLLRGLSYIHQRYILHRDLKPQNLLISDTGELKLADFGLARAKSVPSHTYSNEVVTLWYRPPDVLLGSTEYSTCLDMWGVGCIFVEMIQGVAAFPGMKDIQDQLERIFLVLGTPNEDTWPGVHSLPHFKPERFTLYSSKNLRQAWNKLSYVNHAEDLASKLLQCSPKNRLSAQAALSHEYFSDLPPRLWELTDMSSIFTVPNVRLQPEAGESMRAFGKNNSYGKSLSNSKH

[9] = molecular target: Tyrosine-protein kinase receptor Tie-1 (Homo sapiens) (UniProt P35590); assay: Inhibition of TIE1 (unknown origin) at 10 uM by Ambit Kinomescan binding assay relative to control; values are per cent of control
[10] = molecular target: cGMP-dependent protein kinase 2 (Homo sapiens) (UniProt Q13237); assay: Inhibition of PRKG2 (unknown origin) at 1 uM by Ambit Kinomescan binding assay relative to control
[11] = molecular target: Serine/threonine-protein kinase RIO1 (Homo sapiens) (UniProt Q9BRS2); assay: Inhibition of RIOK1 (unknown origin) at 1 uM by Ambit Kinomescan binding assay relative to control
[12] = molecular target: Cyclin-dependent kinase-like 1 (Homo sapiens) (UniProt Q00532); assay: Inhibition of CDKL1 (unknown origin) at 1 uM by Ambit Kinomescan binding assay relative to control; values are per cent of control
[13] = molecular target: Fibroblast growth factor receptor 3 (Homo sapiens) (UniProt P22607); assay: Inhibition of FGFR3 (unknown origin) at 1 uM by Ambit Kinomescan binding assay relative to control; values are per cent of control
Chain of Fibroblast growth factor receptor 3 (Homo sapiens) (P22607 23-806 limits assumed): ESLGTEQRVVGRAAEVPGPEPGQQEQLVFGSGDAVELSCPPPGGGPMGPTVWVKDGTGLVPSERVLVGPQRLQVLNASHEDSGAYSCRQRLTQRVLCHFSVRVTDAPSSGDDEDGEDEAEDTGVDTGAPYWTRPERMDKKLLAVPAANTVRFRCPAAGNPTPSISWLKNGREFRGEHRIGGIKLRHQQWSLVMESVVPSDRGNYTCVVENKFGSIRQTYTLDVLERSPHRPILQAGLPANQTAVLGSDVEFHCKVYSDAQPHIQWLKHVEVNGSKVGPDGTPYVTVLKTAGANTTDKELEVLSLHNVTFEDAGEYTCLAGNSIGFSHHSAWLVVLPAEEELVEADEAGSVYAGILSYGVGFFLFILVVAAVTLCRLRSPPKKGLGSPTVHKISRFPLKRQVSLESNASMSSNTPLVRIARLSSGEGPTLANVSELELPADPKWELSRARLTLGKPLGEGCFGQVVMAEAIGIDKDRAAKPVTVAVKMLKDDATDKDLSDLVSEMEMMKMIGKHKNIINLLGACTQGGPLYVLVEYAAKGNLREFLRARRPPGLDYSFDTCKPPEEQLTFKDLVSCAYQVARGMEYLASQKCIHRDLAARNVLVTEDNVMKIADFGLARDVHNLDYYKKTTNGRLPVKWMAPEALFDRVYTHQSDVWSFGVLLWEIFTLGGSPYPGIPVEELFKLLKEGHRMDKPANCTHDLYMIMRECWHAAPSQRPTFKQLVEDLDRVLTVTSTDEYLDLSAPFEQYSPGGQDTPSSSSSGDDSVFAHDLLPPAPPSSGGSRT

[14] = molecular target: Homeodomain-interacting protein kinase 1 (Homo sapiens) (UniProt Q86Z02); assay: Inhibition of HIPK1 (unknown origin) at 1 uM by Ambit Kinomescan binding assay relative to control; values are per cent of control
[15] = molecular target: LIM domain kinase 2 (Homo sapiens) (UniProt P53671); assay: Inhibition of LIMK2 (unknown origin) at 1 uM by Ambit Kinomescan binding assay relative to control; values are per cent of control
[16] = molecular target: Cyclin-dependent kinase 2 (Homo sapiens) (UniProt P24941); assay: Inhibition of CDK2 Lys2 labeling site harbouring VLHRDLKPQNLLINTEGAIK in human Huh-7 cell lysate at 1 uM by KiNativ Profiling analysis relative to control; type: subcellular
[17] = molecular target: Mitogen-activated protein kinase kinase kinase kinase 4 (Homo sapiens, UniProt O95819); assay: Inhibition of ZC1/HGK Lys2 labeling site in human Huh-7 cells at 1 uM by KiNativ Profiling analysis relative to control; type: cell-based
Chain of Mitogen-activated protein kinase kinase kinase kinase 4 (O95819 2-1239 limits assumed): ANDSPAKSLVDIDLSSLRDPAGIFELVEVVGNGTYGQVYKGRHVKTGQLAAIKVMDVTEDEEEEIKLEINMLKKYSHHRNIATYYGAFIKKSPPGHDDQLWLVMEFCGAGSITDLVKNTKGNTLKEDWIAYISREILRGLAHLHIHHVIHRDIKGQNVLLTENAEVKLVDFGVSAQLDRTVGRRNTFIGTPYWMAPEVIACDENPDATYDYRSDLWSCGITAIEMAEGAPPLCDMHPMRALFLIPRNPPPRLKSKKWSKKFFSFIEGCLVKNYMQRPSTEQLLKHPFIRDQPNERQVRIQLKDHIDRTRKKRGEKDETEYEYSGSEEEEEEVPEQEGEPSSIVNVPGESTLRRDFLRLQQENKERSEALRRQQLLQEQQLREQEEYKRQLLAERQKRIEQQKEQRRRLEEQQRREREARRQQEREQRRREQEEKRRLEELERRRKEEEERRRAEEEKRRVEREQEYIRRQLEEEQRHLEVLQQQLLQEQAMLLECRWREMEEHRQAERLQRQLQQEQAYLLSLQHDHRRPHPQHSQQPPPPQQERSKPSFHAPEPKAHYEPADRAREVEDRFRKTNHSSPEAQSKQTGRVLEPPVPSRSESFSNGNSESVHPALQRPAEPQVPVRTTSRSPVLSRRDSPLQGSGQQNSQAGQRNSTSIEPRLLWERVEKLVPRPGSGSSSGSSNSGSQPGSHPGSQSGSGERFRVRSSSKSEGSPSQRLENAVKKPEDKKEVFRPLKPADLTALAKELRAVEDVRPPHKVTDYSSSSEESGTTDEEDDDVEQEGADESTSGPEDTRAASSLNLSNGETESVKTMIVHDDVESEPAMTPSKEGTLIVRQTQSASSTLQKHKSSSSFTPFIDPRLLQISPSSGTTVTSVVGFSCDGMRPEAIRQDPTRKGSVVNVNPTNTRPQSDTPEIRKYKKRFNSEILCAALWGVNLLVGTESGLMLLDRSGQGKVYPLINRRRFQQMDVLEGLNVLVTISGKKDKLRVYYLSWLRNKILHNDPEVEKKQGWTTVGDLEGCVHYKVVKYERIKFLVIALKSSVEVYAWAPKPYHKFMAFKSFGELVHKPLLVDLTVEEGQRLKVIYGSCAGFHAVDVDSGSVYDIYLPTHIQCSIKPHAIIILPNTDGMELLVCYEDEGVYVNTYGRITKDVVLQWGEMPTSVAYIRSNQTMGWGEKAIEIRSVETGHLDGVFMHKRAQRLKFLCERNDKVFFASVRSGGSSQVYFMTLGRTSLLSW

CCN1CCN(Cc2ccc(NC(=O)c3ccc(C)c(Oc4ccnc5[nH]ccc45)c3)cc2C(F)(F)F)CC1
inhibition (MEF): Dose-Dependent Effect
inhibition [1]: inactive
inhibition [2]: inactive
inhibition [3]: -7.6%
inhibition [4]: 6.1%
inhibition [5]: 2.3%
inhibition [6]: 13.8%
inhibition [7]: -9.8%
inhibition [8]: 8.3%
residual activity [9]: 0.95%

CCN1CCN(Cc2ccc(NC(=O)c3ccc(C)c(/C=C/c4cnc5[nH]ccc5c4OC)c3)cc2C(F)(F)F)CC1
inhibition [10]: 82%
inhibition [11]: 20%
residual activity [12]: 100%
residual activity [13]: 13%
residual activity [14]: 74%
residual activity [15]: 26%

CNc1cc(Oc2cc(C(=O)Nc3cc(N4CCN(C)CC4)cc(C(F)(F)F)c3)ccc2C)ncn1
inhibition [16]: 16.1%
inhibition [17]: 9.7%
